Data on five compounds can be found in patent publication US20260266837A1, “Methods for Cancer Recurrence Detection and Treatment Thereof” (Institut Curie, priority 2022, published 2026).

Data set [1] concerns MDA-MB-468 untreated and chemoresistant cells. In words: XTT cell cytotoxicity, IC50 to 5-FU. The format is cell-based, human. The note with it: resistant cells after over 15 weeks of 5-FU, 72 h XTT. The method, then: MDA-MB-468 untreated and chemoresistant cells were plated in 96 multi-well plates at a density of 10,000 cells per well and treated with increased concentration of 5-FU (1 μM to 0.5M) for 72 h. Cell cytotoxicity was assayed with XTT kit (Sigma, Ref: 11465015001) and IC 50 was calculated as the concentration of 5-FU that is required to obtain 50% of cell viability (Extended FIG. 2b).
Background: Tetrazolium dyes change colour on reduction, which living cells bring about.

Data set [2] has as its system MDA-MB-468. In words: Prolonged 5-FU treatment, cell proliferation and survival. It counts as cell-based, human. Here is the method:
(§1) Cell lines, culture conditions and drug treatments. MDA-MB-468 cells were cultured in DMEM (Gibco-BRL, Ref: 11966025), supplemented with 10% heat-inactivated fetal calf serum (Gibco-BRL, Ref: 10270-106). HCC38 and BT20 cell lines were cultured in RPMI 1640 (Gibco-BRL, Ref: 11875085), supplemented with 10% heat-inactivated fetal calf serum. […] Cells were treated with 5 μM of 5-FU (Sigma, Ref: F6627) alone or in combination with KDM6A/Bi or EZH2i for indicated days. For EZH2i, cells were pretreated with UNC 1999, UNC 2400 or GSK 126 for 10 days before the addition of 5-FU for an additional 21 days (FIG. 4 and Extended FIG. 8).

The subject of data set [3] is patient-derived xenograft (PDX) models PDX_95, PDX_39 & PDX_172 established from patients with residual TNBC. The experiment in a line: Capecitabine treatment of TNBC patient-derived xenograft models. The format is in vivo, mice. The note with it: oral Capecitabine. An excerpt: Patient samples and PDX models. Patient samples used in this study (n=9) originated from patient treated at Institut Curie with residual triple-negative breast cancers post-neoadjuvant chemotherapy, who gave informed consent for the profiling. In this study, we used three xenograft models generated from three different residual triple-negative breast cancers post-neoadjuvant chemotherapy (HBCx95 called PDX_95, HBCx39 called PDX_39 and HBCx172 called PDX_172 in the manuscript, see Extended Table2) established previously at Curie Institute with informed consent from the patient^46,47. Female Swiss nude mice were purchased from Charles River Laboratories and maintained under specific-pathogen-free conditions. Mouse care and housing were in accordance with institutional guidelines and the rules of the French Ethics Committee (project authorization no. 02163.02).
FIG. 1b: Five mice were not treated and kept as controls (termed “untreated”) and twenty-seven mice were treated orally with Capecitabine (Xeloda; Roche Laboratories) at a dose of 540 mg/kg, 5 d/week for 6 to 14 weeks. Relative tumor volumes (mm3) were measured as described previously^18. Eight mice were sacrificed after the first round of chemotherapy to study “residual” tumors (2 mice) or “persister” (6 mice) human tumor cells. […]

The target of another data set is T1, H3K27me3, EZH2 (Homo sapiens, UniProt Q15910).
T1 construct: endogenous in cells; host or cells: MDA-MB-468, HCC38 or BT20
T1 sequence (Q15910 whole entry): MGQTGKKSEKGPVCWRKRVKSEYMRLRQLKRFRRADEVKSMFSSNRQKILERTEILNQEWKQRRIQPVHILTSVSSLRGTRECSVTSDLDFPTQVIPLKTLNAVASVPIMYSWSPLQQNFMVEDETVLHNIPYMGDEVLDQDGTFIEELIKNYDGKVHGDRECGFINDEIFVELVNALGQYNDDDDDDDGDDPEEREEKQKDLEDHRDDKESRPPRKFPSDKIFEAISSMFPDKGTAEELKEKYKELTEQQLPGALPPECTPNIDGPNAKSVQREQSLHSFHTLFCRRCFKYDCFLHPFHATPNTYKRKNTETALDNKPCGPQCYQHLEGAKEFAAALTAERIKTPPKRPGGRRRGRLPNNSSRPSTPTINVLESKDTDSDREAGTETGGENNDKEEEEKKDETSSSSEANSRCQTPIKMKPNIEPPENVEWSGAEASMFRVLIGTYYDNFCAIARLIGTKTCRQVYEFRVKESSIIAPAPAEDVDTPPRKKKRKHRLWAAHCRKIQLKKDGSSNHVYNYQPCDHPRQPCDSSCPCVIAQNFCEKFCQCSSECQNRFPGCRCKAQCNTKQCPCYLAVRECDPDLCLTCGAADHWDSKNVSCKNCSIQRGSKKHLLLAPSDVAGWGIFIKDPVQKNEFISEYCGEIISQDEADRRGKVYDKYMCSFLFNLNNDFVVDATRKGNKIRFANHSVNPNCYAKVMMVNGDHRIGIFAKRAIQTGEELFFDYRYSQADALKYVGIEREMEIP
T1 sequence (O75530 whole entry partner): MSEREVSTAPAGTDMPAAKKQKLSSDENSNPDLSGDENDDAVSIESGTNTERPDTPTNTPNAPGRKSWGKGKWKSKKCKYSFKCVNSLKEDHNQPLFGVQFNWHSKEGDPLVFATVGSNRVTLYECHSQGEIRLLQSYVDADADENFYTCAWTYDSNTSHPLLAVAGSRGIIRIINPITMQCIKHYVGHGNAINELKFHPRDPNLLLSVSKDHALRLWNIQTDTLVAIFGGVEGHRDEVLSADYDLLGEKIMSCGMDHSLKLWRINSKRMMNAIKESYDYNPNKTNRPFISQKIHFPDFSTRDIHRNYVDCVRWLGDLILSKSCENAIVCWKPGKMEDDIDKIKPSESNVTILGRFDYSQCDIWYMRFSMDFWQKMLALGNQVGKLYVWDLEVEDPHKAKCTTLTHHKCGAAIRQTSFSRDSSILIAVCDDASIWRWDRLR
T1 sequence (Q15022 whole entry partner): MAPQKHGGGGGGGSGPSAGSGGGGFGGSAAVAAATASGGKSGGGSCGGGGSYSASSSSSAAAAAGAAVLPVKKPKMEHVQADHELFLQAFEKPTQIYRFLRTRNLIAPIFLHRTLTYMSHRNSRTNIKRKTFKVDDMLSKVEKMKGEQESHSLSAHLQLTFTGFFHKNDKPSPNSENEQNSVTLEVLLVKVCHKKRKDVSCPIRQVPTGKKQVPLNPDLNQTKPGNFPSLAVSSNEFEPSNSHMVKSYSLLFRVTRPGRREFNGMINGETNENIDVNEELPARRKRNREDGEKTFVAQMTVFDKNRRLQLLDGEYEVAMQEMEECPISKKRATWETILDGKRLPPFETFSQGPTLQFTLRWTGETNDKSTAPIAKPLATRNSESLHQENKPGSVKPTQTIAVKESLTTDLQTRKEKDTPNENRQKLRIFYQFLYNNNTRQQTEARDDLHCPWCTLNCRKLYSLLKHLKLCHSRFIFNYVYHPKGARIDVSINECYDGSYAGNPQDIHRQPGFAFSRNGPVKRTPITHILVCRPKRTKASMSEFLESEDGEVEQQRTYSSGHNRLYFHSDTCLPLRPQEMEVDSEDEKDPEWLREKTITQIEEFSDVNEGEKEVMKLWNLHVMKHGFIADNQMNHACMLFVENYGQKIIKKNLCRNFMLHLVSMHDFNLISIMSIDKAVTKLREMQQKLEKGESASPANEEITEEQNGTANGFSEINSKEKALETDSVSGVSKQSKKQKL
The experiment in a line: Western blotting of EZH2i-treated cells. The format is cell-based. The note with it: prior to chemotherapy treatment. The method, then:
Western blotting. In Extended FIG. 8b/e/g, DMSO- and EZH2i-treated cells were lysed at 95° C. for 10 minutes in Laemmli buffer (50 mM Tris-HCl [pH 6.8], 2% SDS, 5% glycerol, 2 mM DTT, 2.5 mM EDTA, 2.5 mM EGTA, 4 mM Sodium Orthovanadate, 20 mM Sodium Fluoride, protease inhibitors, phosphatase inhibitors) and proteins concentrations were measured using a Pierce BCA protein Assay Kit (Thermo Fisher Scientific, Ref: 23225/23227). 10 μg of proteins were then separated on a 4-15% Mini-PROTEAN TGX Stain-Free Gel (Bio-Rad, Ref: 4568085) at 160V. After transfer, the membrane was blocked for 1 h at room temperature in PBS pH 7.4 containing 0.1% Tween-20 and 1% milk (Regilait). Incubation anti-H3K27me3 (Dilution: 1:2000, Cell Signaling, Ref: 9733) or EZH2 (Dilution: 1:2000, Cell Signaling, Ref: 5246) or Tubulin (Dilution: 1:1000, Thermo Fisher Scientific, Ref: 31460) primary antibodies diluted in PBS pH 7.4, 0.1% Tween-20 were performed at 4° C. overnight.

For a further data set, the system named is MDA-MB-468 cells. The experiment in a line: Lineage barcode frequencies and diversity under 5-FU with EZH2i. It counts as cell-based, human. Particulars: co-treatment with 5-FU, bulk lineage barcodes. The source says: Lentivirus packaging and cell transduction. Lentivirus was produced by transfecting the barcode plasmids pRRL-CMV-GFP-BCv2Ascl and p8.9-QV and pVSVG into HEK293T cells as previously described^30. MDA-MB-468 cells from ATCC were infected at passage 11 with lentivirus produced from the barcode library (pRRL-CMV-GFP-BCv 2Ascl) which includes 18206 different barcodes of 20 bp of a random stretch, at a low multiplicity of infection (MOI 0.1) to minimize the number of cells marked by multiple barcodes. Three weeks after transduction, cells were sorted for GFP expression to select cells with barcode insertion, and used for drug treatment.
Bulk lineage barcode library preparation and sequencing. Lineage barcodes are recovered by isolating genomic DNA from cells of interest (NucleoSpin Tissue, Mini kit for DNA from cells and tissue, Macherey Nagel, Ref: 740952.50). From the isolated genomic DNA, barcodes are amplified with three nested PCR steps as decribed in^30 (see Extended Table 1 for primer sequence). In short, after a first specific PCR for the common region of the lineage barcodes, the amplified material was prepared for sequencing by addition of the illumina sequencing adaptaters and indexing and purification. Sequencing was done in order to obtain 50 reads, on average, per barcoded cell.
Single-cell lineage barcode extraction from 10× datasets. […] To avoid running scripts on all reads we: 1. used samtools to extract all unmapped reads from the 10× output bam file, 2. used awk to take reads with either a 3′ or 5′ 20 bp match to the constant flanking region of the barcode allowing one mismatch, 3. retained only reads with both a 10× cell barcode and 10× UMI. We then located the 20 bp match to one of the constant flanking regions allowing one mismatch (but filtered out reads where a mismatch was in the first or last base to ensure the barcode is at the expected position). We then further required a 4 bp exact match on the other side of the barcode, and then extracted the 20 bp viral barcode, read name, 10× cell barcode and 10× UMI.
To assign one viral barcode to each 10× cell barcode, we determined a consensus viral barcode for each UMI. For each position in the barcode we returned the most frequently observed base and the proportion of reads supporting this consensus. Barcodes associated with a 10× CB-UMI pair were filtered if the proportion of reads supporting a position was ≤0.5 at ≥3 positions. […]
Bulk barcode pre-processing. […] In brief, using R-3.4.0 (R Development Core Team (2019) http://www.R-project.org), raw reads were first filtered for perfect to the input index-and common-sequences using XCALIBR (https://github.com/NKI-GCF/xcalibr) and filtered against the barcode reference list. […]

Data set [4] concerns MDA-MB-468, BT20 and HCC38. In words: Number of persister cells after EZH2i pre-treatment and 5-FU. The format is cell-based, human. Particulars: 10 days pre-treatment, then 5-FU for 21 days. Here is the method: Cell lines, culture conditions and drug treatments. […] All cell lines were cultured in a humidified 5% CO2 atmosphere at 37° C., and were tested as mycoplasma negative. […] Cells were treated with 5 μM of 5-FU (Sigma, Ref: […]) alone or in combination with KDM6A/Bi or EZH2i for indicated days. […] Cell proliferation, doubling time and IC50. MDA-MB-468, HCC38 and BT20 cells were stained with Trypan Blue (Invitrogen, Ref: T10282) exclusion test, and counted using a Countess automated cell counter (Invitrogen, Ref: C10228) at indicated time of treatment (FIG. 4a and Extended FIG. 8a/d/f).

The subject of data set [5] is MDA-MB-468. In words: Colony forming assay and persister cell count, 5-FU with KDM6A/Bi. The format is cell-based, human. Here is the method: as §1, with “serum. All cell lines were cultured in a humidified 5% CO2 atmosphere at 37° C., and were tested as mycoplasma negative.” for “serum.”
(§2) Colony forming assay. TBNC cells were plated in 6 multi-well plates at a density of 200,000 cells per well and treated with the indicated drugs for 60 days (MDA-MB-468, FIG. 5a/b and Extended FIG. 9b) or 56 days (BT20) or 50 days (HCC38) (Extended FIG. 9). Cultures were incubated in humidified 37° C. incubators with an atmosphere of 5% CO2 in air, and treated plates were monitored for growth using a microscope. At the time of maximum foci formation, colony formation was evaluated after a staining with 0.5% Crystal Violet (Sigma, ref: C 3886).

A further data set relates to tumors in mice. The experiment in a line: Capecitabine and GSK-J4 treatment of mice, tumor volume and disease-free survival. The format is in vivo. Here is the method: FIG. 5c: Five mice were treated intraperitoneally with DMSO, five mice were treated intraperitoneally with GSK-J4 alone at a dose of 50 mg/kg, 5 d/week for 25 days. Twenty-five mice were treated orally with Capecitabine at a dose of 540 mg/kg, 5 d/week for 36 days and twenty-five mice were co-treated with Capecitabine and GSK-J4 for 36 days. Tumor volumes (mm3) were measured to follow recurrence. FIG. 5d: Disease-free survival was defined as the number of days between the observation of a complete response (relative tumor volume RTV compared to volume at onset of treatment<0.2) after the first round of Capecitabine treatment, and the appearance of a recurrent tumor (RTV>3). Statistical analysis was performed using a log-rank test.

Another data set has as its system BT20 and HCC38. In words: Colony forming assay, 5-FU with KDM6A/Bi, additional TNBC cell lines. It counts as cell-based, human. The note with it: BT20 and HCC38, 5-FU. Here is the method:
as §1, with “serum. All cell lines were cultured in a humidified 5% CO2 atmosphere at 37° C., and were tested as mycoplasma negative.” for “serum.”
as §2

Regarding `O=c1[nH]cc(F)c(=O)[nH]1` [5-FU, Fluorouracil], the “IC50 to 5-FU of resistant cells relative to untreated population” value in data set [1] was “over 4 fold”. Further, in the data set with MDA-MB-468 [2] (MDA-MB-468, 5-FU, after 3 weeks), the “cells surviving drug insult” value is reported as 0.01 % of the initial population. In the data set with MDA-MB-468 [2] (MDA-MB-468 persister cells under 5-FU), the “time until surviving cells started proliferating again under chemotherapy” value is 10 to 15 days.
For the compound `CCCCCOC(=O)Nc1nc(=O)n([C@@H]2O[C@H](C)[C@@H](O)[C@H]2O)cc1F` [Capecitabine], in data set [3], the “tumor response to first round of chemotherapy” value is reported as “mice displayed a pathological complete response (pCR), but tumors eventually recurred”.
As for `CC[C@H](C)n1cc(C)c2c(C(=O)NCc3c(C)cc(C)[nH]c3=O)cc(-c3ccc(N4CCNCC4)nc3)cc21` [EZH2i-2], on H3K27me3, EZH2, the EZH2 protein levels result is on record as “without perturbing EZH2 protein levels” and the H3K27me3 level entry was “erasing H3K27me3”. Also, the “correlation scores between lineage frequencies in 5-FU and DMSO treated population” value in the data set on MDA-MB-468 cells is “increased correlation scores”. For the same compound, the “number of persister cells” value in data set [4] was “increased the number of persister cells”.
`CCOC(=O)CCNc1cc(N2CCc3ccccc3CC2)nc(-c2ccccn2)n1` [GSK-J4]: in the data set on MDA-MB-468 [5] (added after onset of 5-FU rather than in combination), the “effect when administered once persister cells have emerged” value is “inefficient”. In the data set on MDA-MB-468 [5] (co-treatment with 5-FU), the “number of persisters at day 21” value is “decrease in the number of persisters”. The “growth of persister cells under 5-FU at day 60” value in the data set on MDA-MB-468 [5] (co-treatment with 5-FU, colony forming assay) is “completely abolished the growth of persister cells”. The “effect on untreated cancer cells” value in the data set on MDA-MB-468 [5] (without 5-FU) is given as “no effect on untreated cancer cells”. Besides, the “toxicity for the mice” value in the data set with tumors in mice (GSK-J4 50 mg/kg intraperitoneally) was “nor was toxic for the mice”. For the same compound, in the data set on tumors in mice (GSK-J4 alone, 50 mg/kg intraperitoneally), the “tumor progression in absence of chemotherapy” value is on record as “did not inhibit tumor progression”. Further, the “delay to recurrence (disease-free survival)” value with tumors in mice (in combination with Capecitabine versus Capecitabine alone, n=25 each, p=4.0e-2) is on record as “significantly increased the delay to recurrence”. Further, in the data set on BT20 and HCC38, the “confirmation of KDM6i effects on persister cells” value was “confirmed”.
With `CCCc1cc(C)n(C)c(=O)c1CN(C)C(=O)c1cc(-c2ccc(N3CCN(C(C)C)CC3)nc2)cc2c1cnn2C(C)C` [UNC240034], the “correlation scores between lineage frequencies in 5-FU and DMSO treated population” value with MDA-MB-468 cells is recorded as “no effect on lineage frequencies”. Also, in data set [4], the “number of persister cells” value was “no effect”.
